Assay: GC-MS headspace release profile of Tropical Fruit perfume in shampoo, 1/100 dilution in water
Format: physicochemical
Protocol: A 10 gram sample of formulation and fragrance was added to an empty 1000 ml pyrex beaker. This beaker was then filled with 1000 ml of 120 F tap water. Beaker with diluted shampoo sample was then immediately placed into a semi-enclosed plexiglass chamber.
Headspace Sampling: Once beaker was placed into chamber a Carboxan SPME field fiber was held at the top-side opening of the chamber over the beaker containing the sample. […] […] Top of plexiglass chamber was held open for entire 5 minutes of headspace sampling.

## CC/C=C\CCO [CIS-3-HEXEN-1-OL]
Headspace at 20 seconds
  GC Abundance: 14000
Headspace at 30 seconds
  GC Abundance: 14000
Headspace at 40 seconds
  GC Abundance: 14000
Headspace at 50 seconds
  GC Abundance: 14000

## CC(=O)OC(C)(C)C1CC=C(C)CC1 (centres unmarked) [TERPINYL ACETATE]
Headspace at 30 seconds
  GC Abundance: 1000
Headspace at 40 seconds
  GC Abundance: 9000
Headspace at 50 seconds
  GC Abundance: 9000

## CCCCCC1CCC(=O)O1 (centres unmarked) [ALDEHYDE C-18]
Headspace at 20 seconds
  GC Abundance: 2000
Headspace at 30 seconds
  GC Abundance: 2000
Headspace at 40 seconds
  GC Abundance: 4000
Headspace at 50 seconds
  GC Abundance: 4000

## OXANONE CRYSTALS
Headspace at 50 seconds
  GC Abundance: 70

## VERTOFIX COEUR
Headspace at 50 seconds
  GC Abundance: 50

## Cc1ccc2c(c1)OCC(=O)CO2 [CALONE]
Headspace at 50 seconds
  GC Abundance: 1000

## CC(C)c1cccc(C(C)CC=O)c1 (centres unmarked) [FLORHYDRAL]
Headspace at 40 seconds
  GC Abundance: 9000
Headspace at 50 seconds
  GC Abundance: 10000

## CCC=C(C)C(O)CCCCC (centres unmarked) [UNDECAVERTOL, 4-Methyl-3-decen-5-ol]
Headspace at 40 seconds
  GC Abundance: 10000
Headspace at 50 seconds
  GC Abundance: 10000

## CCC(=O)OCc1ccccc1 [BENZYL PROPIONATE]
Headspace at 20 seconds
  GC Abundance: 2000
Headspace at 30 seconds
  GC Abundance: 6000
Headspace at 40 seconds
  GC Abundance: 6000
Headspace at 50 seconds
  GC Abundance: 6000

## CCC(C)(O)CCC=C(C)C (centres unmarked) [DIHYDROLINALOOL]
Headspace at 20 seconds
  GC Abundance: 3000
Headspace at 30 seconds
  GC Abundance: 3000
Headspace at 40 seconds
  GC Abundance: 3000
Headspace at 50 seconds
  GC Abundance: 3000

## CC(C)=CCCC(C)CCCC(C)C=O (centres unmarked) [ADOXAL, 2,6,10-Trimethyl-9-undecenal]
Headspace at 40 seconds
  GC Abundance: 300
Headspace at 50 seconds
  GC Abundance: 3000

## O=C1CCCCCCCCCCCCCCO1 [EXALTOLIDE TOTAL]
Headspace at 50 seconds
  GC Abundance: 50

## C=C(C)[C@H]1CC=C(C)CC1 [d-LIMONENE, d-1-Methyl-4-isopropenyl-1-cyclohexene]
Headspace at 5 seconds, Tropical Fruit perfume 1% in shampoo
  GC Abundance: 7000
Headspace at 10 seconds
  GC Abundance: 7000
Headspace at 20 seconds
  GC Abundance: 7000
Headspace at 30 seconds
  GC Abundance: 7000
Headspace at 40 seconds
  GC Abundance: 5000
Headspace at 50 seconds
  GC Abundance: 4000

## CC(C)=CCCC(C)CCO (centres unmarked) [CITRONELLOL AJ, FCC, CITRONELLOL]
Headspace at 20 seconds
  GC Abundance: 7000
Headspace at 30 seconds
  GC Abundance: 7000
Headspace at 40 seconds
  GC Abundance: 7000
Headspace at 50 seconds
  GC Abundance: 7000

## O=C1CCCCCCCCCCCC(=O)OCCO1 [ETHYLENE BRASSYLATE]
Headspace at 50 seconds
  GC Abundance: 20

## C=CCOC(=O)CCCCCC [ALLYL HEPTOATE]
Headspace at 20 seconds
  GC Abundance: 4000
Headspace at 30 seconds
  GC Abundance: 10000
Headspace at 40 seconds
  GC Abundance: 12000
Headspace at 50 seconds
  GC Abundance: 12000

## CC/C=C\CCOC(=O)OC [LIFFAROME]
Headspace at 20 seconds
  GC Abundance: 3000
Headspace at 30 seconds
  GC Abundance: 3000
Headspace at 40 seconds
  GC Abundance: 3000
Headspace at 50 seconds
  GC Abundance: 3000

## CC1OC(C)C2Cc3ccccc3C2O1 (centres unmarked) [MAGNOLAN/CORPS 719]
Headspace at 40 seconds
  GC Abundance: 1000
Headspace at 50 seconds
  GC Abundance: 3000

## COC(=O)c1c(C)cc(O)c(C)c1O [METHYL ATRATATE]
Headspace at 50 seconds
  GC Abundance: 50

## CC(=O)OC1CCC(C(C)(C)C)CC1 (centres unmarked) [VERTENEX HC]
Headspace at 30 seconds
  GC Abundance: 2000
Headspace at 40 seconds
  GC Abundance: 8000
Headspace at 50 seconds
  GC Abundance: 10000

## C=CC(C)(O)CCC=C(C)CC (mixture of isomers) [ETHYL LINALOOL]
Headspace at 20 seconds
  GC Abundance: 5000
Headspace at 30 seconds
  GC Abundance: 10000
Headspace at 40 seconds
  GC Abundance: 10000
Headspace at 50 seconds
  GC Abundance: 10000

## OCc1ccccc1 [BENZYL ALCOHOL]
Headspace at 40 seconds
  GC Abundance: 50
Headspace at 50 seconds
  GC Abundance: 100

## CC(C=O)Cc1ccc2c(c1)OCO2 (centres unmarked) [HELIONAL]
Headspace at 40 seconds
  GC Abundance: 500
Headspace at 50 seconds
  GC Abundance: 5000

## C=CC(C)CCCC(C)(C)O (centres unmarked) [DIHYDROMYRCENOL]
Headspace at 10 seconds
  GC Abundance: 500
Headspace at 20 seconds
  GC Abundance: 15000
Headspace at 30 seconds
  GC Abundance: 15000
Headspace at 40 seconds
  GC Abundance: 15000
Headspace at 50 seconds
  GC Abundance: 15000

## CC(=O)OCc1ccccc1 [BENZYL ACETATE]
Headspace at 20 seconds
  GC Abundance: 12000
Headspace at 30 seconds
  GC Abundance: 17000
Headspace at 40 seconds
  GC Abundance: 18000
Headspace at 50 seconds
  GC Abundance: 18000

## CC1(C)CCC[C@]2(C)[C@H]3CCO[C@]3(C)CC[C@@H]12 [AMBROXAN]
Headspace at 50 seconds
  GC Abundance: 1000

## CC(=O)OC(C)(C)Cc1ccccc1 [DIMETHYL BENZYL CARBINYL ACETATE]
Headspace at 30 seconds
  GC Abundance: 2000
Headspace at 40 seconds
  GC Abundance: 8000
Headspace at 50 seconds
  GC Abundance: 8000

## CC(C)CC1CC(C)(O)CCO1 (centres unmarked) [FLOROL]
Headspace at 40 seconds
  GC Abundance: 10000
Headspace at 50 seconds
  GC Abundance: 15000

— patent US7446079B2, “Perfumes for rinse-off systems” (Givaudan Fragrances Corporation, priority 2005, dated 2008)
